Measurements taken from patent publication US5885834A, “Antisense oligodeoxynucleotide against phosphodiesterase” (priority 1997, dated 1999).
Where two headings read alike, the source gives them in different places.

Key:
Type in all cases: cell-based, human
[1] = test system: PDE4 mRNA in HPBL; assay: RT-PCR amplification of transcripts in HPBL
Protocol: (§1) HPBL were purified from 30-60 ml of blood obtained from normal donors by defribrination with glass beads to remove platelets, incubated with tetracarbonyl iron to minimize monocyte contamination and centrifuged on Ficoll-Hypaque density gradients to achieve cell separation. […] For this stimulation, cells were placed in 25 cm^2 flasks in a total volume of 10 ml/flask.
(§2) First strand cDNA was synthesized from the RNA using a Superscript Preamplification System from GIBCO/BRL. […] To this was added 10 mM Tris/HCl pH 8.4, 50 mM KCl, 2.5 mM MgCl2, 10 mM DTT, 500 μM each of dGTP, dATP, dCTP and dTTP in a total volume of 20 μl, and the resultant mix was incubated at room temperature for 5 min. Superscript II reverse transcriptase (2 U) was then added and incubation continued at 42° C. for 50 min. at 70° C. for 15 min. RNase H (2 U) was then added and incubation carried out for 20 min. at 37° C. PCR amplification was carried out in a total volume of 50 μl using 2 μl of cDNA, 20 mM Tris/HCl pH 8.4, 50 mM KCl, 1.5 mM MgCl2, 200 μM each of dGTP, dATP, dCTP and dTTP and 0.4 μM of sense and antisense primers specific for different isogenes of human PDE4, human β-actin and human PDE1B1, as described hereinafter. The PCR reaction mixture was incubated at 94° C. for 5 min. followed by the addition of 0.5 μl Taq DNA polymerase (5 U/μl, GIBCO/BRL). PCR amplification was then carried out for 35 cycles at 94° C. for 1 min., 58° C. for 1 min., 72° C. for 1 min., followed by a final extension at 72° C. for 10 min., except where indicated otherwise. A sample of amplified DNA (10 μl) was resolved on a 1.5% agarose gel containing 0.5 μg/ml ethidium bromide and visualized and photographed under UV light. […] PCR amplification with primers specific for human β-actin were run for every cell sample, as positive controls to ensure that the isolated RNA was not degraded, and for normalization to verify that relatively equal amounts of RNA were used for the first strand cDNA synthesis reactions.
(§3) Primers specific for PDE4A, PDE4B, PDE4C, and PDE4D3 were synthesized. […] M37744; HSPDE4A4B (PDE-46), GenBank no. L20965; HSPDE4A4C (h6.1), GenBank no. U18087. […] U88712 and U88713.

[2] = test system: PDE4B mRNA in RPMI 8392 cells; assay: RT-PCR amplification of PDE4 subtype transcripts in RPMI 8392 cells; conditions: agent alone
[3] = test system: PDE4D3 mRNA in RPMI 8392 cells; assay: as above; conditions: agent alone
[4] = test system: RPMI 8392 cells; assay: Apoptosis by endonuclease-digested DNA (DNA laddering) on agarose gels; conditions: Homo sapiens, read-out: Concentrations at which apoptosis was induced
Protocol: The preferred method for testing the ability of AS ODN to induce apoptosis as determined by detection of endonuclease digested DNA on agarose gels employs the following sequence:
(2) Cells are grown to ≈10^6 /ml, collected by centrifugation for 5 min. at 300×g (1000 rpm in an IEC Model K centrifuge), resuspended in growth medium to 10^6 cells/ml, and placed in a 24 well tissue culture plate at 1 ml/well. The cell volumes are kept to a minimum (i.e., -1 ml), in order to reduce the amount of ODN needed. The fetal bovine serum used in the growth medium for this step is heat-inactivated at 65° C. for 1 hr. to minimize serum nuclease activity.
(4) Cells are then incubated for varying times, usually 1-3 days, following which the DNA is isolated.
The supernatant is aspirated down to ≈50 μl of volume and the cell pellet is resuspended in this remaining small volume.
(6) About 400 μl of cold cell lysis buffer (50 mM Tris-HCl, pH 7.5, 10 mM EDTA, 1% Triton X-100) is then added.
(9) The upper, aqueous phase is transferred to a fresh microfuge tube and 250 μl of phenol and 250 μl of chloroform are added, the mixture gently vortexed for 5 sec., and centrifuged at 16,650×g for 5 min.
(10) The upper, aqueous phase is again transferred to a fresh microfuge tube and 500 μl of chloroform is added, followed by gentle vortexing and centrifugation at 16,650×g for 3 min.
(11) The upper, aqueous phase is again transferred to a fresh microfuge tube, 3M sodium acetate (pH 5.2) is added to a final concentration of 0.3M, and 2.5 volumes of ice cold 100% ethanol is added. The solution is left overnight at -20° C. to precipitate the DNA.
(12) The DNA is collected by centrifugation at 16,650×g for 15 min., the supernatant decanted, and the pellet air dried for ≈30-60 min. at room temperature. The DNA pellet is then dissolved in 50 μl of pH 8.0 TE buffer at room temperature overnight.
(13) One μl of a 4 mg/ml solution of DNase-free RNase A is then added to the DNA and incubation is carried out at 37° C. for 30 min. This step is necessary to prevent contaminating RNA from obscuring the gel.
(14) Thirty μl of DNA solution is then mixed with 6 μl of 6× loading buffer and run on a 2% agarose gel, containing 0.5 μg/ml ethidium bromide, in 0.5× TBE buffer (45 mM Tris-borate, 1 mM EDTA, pH 8.0) at ≈50 V for ≈1.5 hr. The 6× loading buffer used is 0.25% xylene cyanol and 30% glycerol. The use of bromophenol blue is omitted for this analysis because it tends to obscure the visualization of the DNA ladder pattern.
(15) The gel is then visualized and photographed under UV light.
The effect of pharmacological inhibition of each of these PDE activities on induction of apoptosis in RPMI 8392 cells was tested, using the appearance of oligonucleosome length fragments of endonuclease digested DNA as a measure of apoptosis.
Markers (lane 1 in both gels) are 1 kb DNA ladder size markers from GIBCO/BRL.
Cells (10^6) were collected by centrifugation at 670×g for 5 min. The cell pellets were rinsed once with 0.2M dibasic sodium phosphate and lysed in 300 μl of lysis buffer (50 mM Tris/HCl pH 7.5, 10 mM EDTA, 1% V/V Triton X-100) for 20 min on ice. Proteinase K was added to 0.5 mg/ml and DNase-free RNase was added to 50 μg/ml and the extract incubated at 37° C. for 1 hr. DNA was then extracted in phenol/chloroform (1:1) and chloroform (1:1) and precipitated in 2.5 volumes of ethanol. The extracted DNA was electrophoresed on 2% agarose gels, the gels stained with 0.5 μg/ml ethidium bromide and photographed under UV light.
Experiments were conducted to determine if inhibition of the expression of the gene for PDE1B1 could induce apoptosis.

[5] = test system: isolated, quiescent HPBL; assay: TUNEL assay of apoptosis, flow cytometry, quiescent HPBL; conditions: mitogen PHA added to HPBL in culture
Text: Nevertheless, the effects of AS ODNs on HPBL can still be tested by quantifying and comparing the percentage of cells undergoing apoptosis in the presence and absence of the AS ODN. Apoptosis detected by examining endonuclease-digested DNA, commonly referred to as the DNA laddering technique, has been employed and the results therefrom are set forth in FIG. 5. However, we prefer to use a TUNEL assay, an acronym for terminal deoxynucleotidyl transferase (TdT)-mediated dUTP nick end labeling, which more readily allows quantitation of the percentage of cells undergoing apoptosis. The principle of the TUNEL assay is that endonuclease digestion during apoptosis results in the formation of 3'-OH ends in the digested DNA. The digested DNA in the apoptotic cells can then be labeled with fluorescein by catalytically incorporating fluorescein-12-dUTP at the 3'-OH ends using the TdT enzyme. Fluorescence can then be quantitated by flow cytometry, using a fluorescence activated cell sorter (FACS), which would give a measure of the number of cells undergoing apoptosis. An example of the appearance of a population of fluorescein labeled apoptotic cells, as evidenced by flow cytometry, following TUNEL assay labeling of the cells, is shown in FIGS. 6A-C. Cells were then cultured for 3 days with 10 μg/ml PHA-P (Sigma), in the absence of any ODN (FIG. 6A), in the presence of 30 μM NS ODN (FIG. 6B), or in the presence of 30 μM AS ODN (FIG. 6C). Cells were then collected by centrifugation and fluorescein labeled by the TUNEL assay using the Promega Apoptosis Detection System. Flow cytometry was performed on a Beckton Dickinson FACScan by the FACS facility.
The procedure for analyzing apoptosis by the TUNEL method uses either an In Situ Cell Death Kit, Fluorescein from Boehringer Mannheim or an Apoptosis Detection System, Fluorescein from Promega and follows the protocols of the manufacturers. The data in FIGS. 6 and 7 was obtained using the manufacturer's protocol for the Apoptosis Detection System, Fluorescein from Promega. […]

[6] = test system: PDE1B1 mRNA in HPBL; assay: RT-PCR amplification of transcripts in HPBL
Protocol: as §1, §2, §3

[7] = test system: PDE4A mRNA in HPBL; assay: RT-PCR amplification of transcripts in HPBL; conditions: 10 μg/ml PHA-P, 18 and 48 hr
Protocol: as §1, §2, §3

[8] = test system: PDE4D1 and D2 mRNA in HPBL; assay: RT-PCR amplification of transcripts in HPBL; conditions: 10 μg/ml PHA-P, 18 and 48 hr
Protocol: as §1, §2, §3

[9] = test system: PDE4D3 mRNA in HPBL; assay: RT-PCR amplification of transcripts in HPBL; conditions: 10 μg/ml PHA-P, more prominent at 48 hr than 18 hr
Protocol: as §1, §2, §3

Q: With CCCC(=O)Nc1ncnc2c1ncn2[C@@H]1O[C@@H]2COP(=O)(O)O[C@H]2[C@H]1OC(=O)CCC [dbcAMP, dibutyryl cAMP] as the compound, how does the “PDE4 mRNA expression, compared with dbcAMP plus IBMX” value ([1]; dbcAMP (1 mM) alone) read?
A: same effects

Q: And the “Expression of PDE4B mRNA, compared with dbcAMP plus IBMX” value [2]?
A: reproduced

Q: And the “Expression of PDE4D3 mRNA, compared with dbcAMP plus IBMX” value [3]?
A: reproduced

Q: Which minimal effective concentration ([4]; 24 h) does the source give for CCCCOc1cc(CC2CNC(=O)N2)ccc1OC (centres unmarked) [RO 20-1724] here?
A: ≥ 10 µM

Q: For COc1ccc(C2CNC(=O)C2)cc1OC1CCCC1 (centres unmarked) [rolipram], which minimal effective concentration ([4]; RPMI 8392 cells, culture for 24 hr) is on record?
A: ≥ 10 µM

Q: CC(C)Cn1c(=O)n(C)c(=O)c2[nH]cnc21 [IBMX, 1-methyl-3-isobutylxanthine] was tested. Which “PDE4 mRNA expression, compared with dbcAMP plus IBMX” value ([1]; IBMX (0.1 mM) alone) did it give?
A: same effects

Q: And the “Expression of PDE4B mRNA, compared with dbcAMP plus IBMX” value [2]?
A: reproduced

Q: And the “Expression of PDE4D3 mRNA, compared with dbcAMP plus IBMX” value [3]?
A: reproduced

Q: Which results are given for phytohemagglutinin [PHA]?
A: Spontaneous apoptosis of HPBL in culture (TUNEL) [5]: prevented the HPBL from undergoing spontaneous apoptosis; Expression of the mRNA for PDE1B1 ([6]; 10 μg/ml PHA-P, 18 and 48 hr): readily apparent; PDE1B1 RT-PCR cDNA fragment (≈333 nt) ([6]; PHA for 3 days): show a cDNA fragment of the predicted size; Expression of PDE4A mRNA [7]: striking induction; Expression of PDE4D1 and D2 mRNA [8]: some increase in the expression; Expression of PDE4D3 mRNA [9]: huge induction
